Reference: ChEMBL document CHEMBL1127515, “The [(methyloxy)imino]methyl moiety as a bioisoster of aryl. A novel class of completely aliphatic beta-adrenergic receptor antagonists” (J Med Chem, 1994)

Tests used:
[1] = biological target: Beta-1 adrenergic receptor (Rattus norvegicus, UniProt P18090); assay: Binding affinity against beta-1-adrenergic receptor in rat brain; type: tissue-based
[2] = biological target: Beta-2 adrenergic receptor (Bos taurus, UniProt Q28044); assay: Binding affinity against beta-2-adrenergic receptor in bovine lung
[3] = biological target: Beta-1 adrenergic receptor (Cavia porcellus, UniProt B0FL73); assay: Inhibitory concentration against beta-1-adrenergic receptor in isolated guinea pig atria
[4] = biological target: Beta-2 adrenergic receptor (Cavia porcellus, UniProt Q8K4Z4); assay: Inhibitory concentration against beta-2-adrenergic receptor in isolated guinea pig tracheal strips
Beta-2 adrenergic receptor (Cavia porcellus, UniProt Q8K4Z4), sequence (Q8K4Z4 whole entry): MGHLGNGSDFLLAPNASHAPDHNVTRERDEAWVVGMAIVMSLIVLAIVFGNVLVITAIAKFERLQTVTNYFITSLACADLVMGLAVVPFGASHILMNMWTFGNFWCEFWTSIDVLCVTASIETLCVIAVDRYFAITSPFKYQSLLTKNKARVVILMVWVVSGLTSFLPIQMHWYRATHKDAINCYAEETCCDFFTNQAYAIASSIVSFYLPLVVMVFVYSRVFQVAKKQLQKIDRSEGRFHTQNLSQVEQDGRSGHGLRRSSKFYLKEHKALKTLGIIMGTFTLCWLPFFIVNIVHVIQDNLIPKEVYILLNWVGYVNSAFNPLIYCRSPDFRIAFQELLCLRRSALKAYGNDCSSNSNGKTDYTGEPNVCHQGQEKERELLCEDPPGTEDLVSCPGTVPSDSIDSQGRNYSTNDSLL

Beta-2 adrenergic receptor (Bos taurus, UniProt Q28044), sequence (Q28044 whole entry): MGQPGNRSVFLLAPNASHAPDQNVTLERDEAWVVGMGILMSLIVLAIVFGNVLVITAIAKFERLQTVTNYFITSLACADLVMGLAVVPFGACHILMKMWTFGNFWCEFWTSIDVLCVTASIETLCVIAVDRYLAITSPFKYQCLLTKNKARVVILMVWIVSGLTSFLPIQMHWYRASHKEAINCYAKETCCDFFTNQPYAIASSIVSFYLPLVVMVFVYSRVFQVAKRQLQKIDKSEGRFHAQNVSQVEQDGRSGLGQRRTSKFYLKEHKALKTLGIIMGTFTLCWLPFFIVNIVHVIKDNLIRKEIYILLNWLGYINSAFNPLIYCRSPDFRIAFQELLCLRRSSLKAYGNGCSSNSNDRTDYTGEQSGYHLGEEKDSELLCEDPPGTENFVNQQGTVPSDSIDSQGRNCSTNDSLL
Beta-1 adrenergic receptor (Rattus norvegicus, UniProt P18090), sequence (P18090 whole entry): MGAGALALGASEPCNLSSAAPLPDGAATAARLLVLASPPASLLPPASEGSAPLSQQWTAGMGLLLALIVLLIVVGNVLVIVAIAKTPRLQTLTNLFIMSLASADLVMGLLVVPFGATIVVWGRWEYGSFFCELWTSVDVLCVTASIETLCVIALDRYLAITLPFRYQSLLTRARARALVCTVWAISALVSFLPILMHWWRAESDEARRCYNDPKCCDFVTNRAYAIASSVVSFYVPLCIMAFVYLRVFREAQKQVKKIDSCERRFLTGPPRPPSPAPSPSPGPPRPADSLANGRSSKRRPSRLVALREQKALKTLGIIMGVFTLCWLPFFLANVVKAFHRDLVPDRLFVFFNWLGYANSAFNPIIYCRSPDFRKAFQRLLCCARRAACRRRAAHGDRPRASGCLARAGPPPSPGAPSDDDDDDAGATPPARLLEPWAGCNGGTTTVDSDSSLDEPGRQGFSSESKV
Beta-1 adrenergic receptor (Cavia porcellus, UniProt B0FL73), sequence (B0FL73 whole entry): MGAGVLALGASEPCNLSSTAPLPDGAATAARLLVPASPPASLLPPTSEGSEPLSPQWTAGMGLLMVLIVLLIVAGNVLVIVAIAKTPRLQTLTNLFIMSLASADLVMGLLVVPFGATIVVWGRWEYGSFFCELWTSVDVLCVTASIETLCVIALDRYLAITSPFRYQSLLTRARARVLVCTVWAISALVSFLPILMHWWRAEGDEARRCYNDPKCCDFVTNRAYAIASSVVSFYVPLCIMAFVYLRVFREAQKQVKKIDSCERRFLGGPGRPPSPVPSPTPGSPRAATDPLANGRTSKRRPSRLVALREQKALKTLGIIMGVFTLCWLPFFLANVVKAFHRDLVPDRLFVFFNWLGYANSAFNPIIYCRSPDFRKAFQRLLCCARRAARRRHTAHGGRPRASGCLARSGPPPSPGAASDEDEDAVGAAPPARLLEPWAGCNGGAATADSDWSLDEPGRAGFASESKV

Row | SMILES | Ki [1] | Ki [2] | IC50 [3] | IC50 [4]
1 | CCO/N=C/C(O)CNC(C)(C)C (centres undefined) | 1.08 µM | 1.4 µM | 13.8 µM | 0.977 µM
2 | CCCO/N=C/C(O)CNC(C)C (centres undefined) | 1.24 µM | 5.6 µM | 15.5 µM | 4.37 µM
3 | CC(C)NCC(O)c1ccc(Cl)c(Cl)c1 (centres undefined) [DICHLOROISOPROTERENOL] | 0.051 µM | 0.14 µM | 0.115 µM | 0.977 µM
4 | C/C=N/OCC(O)CNC(C)(C)C (centres undefined) | 0.76 µM | 1.98 µM | 13.5 µM | 4.07 µM
5 | CCCO/N=C/C(O)CNC(C)(C)C (centres undefined) |  |  | 8.32 µM | 0.269 µM
6 | CC/C=N/OCC(O)CNC(C)(C)C (centres undefined) | 0.5 µM | 1.26 µM | 26.3 µM | 1.55 µM

Now from value to molecule:

Row | Ki [1] | Ki [2] | IC50 [3] | IC50 [4] | SMILES
7 | 1.04 µM | 3.5 µM | 12.3 µM | 3.31 µM | CCO/N=C/C(O)CNC(C)C (centres undefined)
8 | 1.48 µM | 7.2 µM | 30.2 µM | 12.9 µM | C/C=N/OCC(O)CNC(C)C (centres undefined)
9 | 2.2 µM | 4.58 µM | 15.5 µM | 12 µM | CC/C=N/OCC(O)CNC(C)C (centres undefined)
